# Laboratory results: paper PMC9043391, “Isolation and biological activities of compounds from Rumex vesicarius L. and their use as a component of a synbiotic preparation” (Food Chemistry: X, 2022)
# Marks after values point to notes of the source that are not given here. Square brackets hold non-standard residues; d marks the D form. Peptide text beside a SMILES is read from it. * marks the point of attachment. Sta = CC(C)C[C@H](N)[C@@H](O)CC(=O)O; Isovaleryl = CC(C)CC(=O)*
# What was measured:
# [1] = tested on: Escherichia coli Nissle 1917 (EcN); experiment: Growth kinetic curves of Escherichia coli Nissle 1917 (OD600, DMFit); format: cell-based; settings: for Effect on lag phase of EcN compared with control: 2 mg/mL, in words
# Experimental: (§1) Escherichia coli K12 (K12) was chosen as a representative enteric species, and E. coli Nissle 1917 (EcN) was chosen as a representative probiotic strain. Both strains were obtained from the bacterial strain collection in Food Microbiology Laboratory (Dairy department, Faculty of Agriculture, Mansoura University, Egypt). An overnight culture of both strains was activated in nutrient broth (NB) (BD Difco™, Bacton, Dickinson and Company Sparks, MD, USA) at 37 °C for 16–18 h. The culture was diluted on test days in buffered peptone water to a final concentration of 1.5 × 10^8 colony forming units (CFU)/mL cell counts were assessed by pour plate method, one mL of a suitable dilution was incubated on nutrient agar at 37 °C for 24 h. colonies were then counted and converted to CFU/mL ([Dawood et al., 2021]).
# An aliquot (100 µL) of EcN was inoculated into NB (BD Difco ^TM) and incubated at 37 °C for 24 h. An overnight culture of EcN was further streaked onto nutrient agar and incubated for 48 h at 37 °C. The EcN culture was diluted in sterile saline solution (0.85%) on the day of assay to adjust the final cell count to 1.5 × 10^8 CFU/mL. Bacterial growth was determined in NB supplemented with individual pure compounds (1–8) or extracts (methanol, petroleum ether, and ethyl acetate) at 2 mg/mL. Growth kinetics of EcN were monitored spectrophotometrically by OD600 every of 60 min at 37 °C ([Pacheco-Ordaz et al., 2018]). DMFit ver. 2.1 an Excel add-in was used to determine: doubling time (Td), lag time, maximum growth at the stationary phase (Y max, OD), and specific growth rate (µmax, OD).
# [2] = tested on: Escherichia coli Nissle 1917 (EcN); experiment: Prebiotic index of EcN (CFU on sample vs CFU on glucose); format: cell-based; settings: 2 mg/mL, 24 h, ratio to growth on 2 mg/mL glucose
# Experimental: as §1
# Prebiotic index (PI) was estimated as previously described ([Dawood et al., 2021]). E. coli Nissle 1917 was used as the representative probiotic strain. Aliquots containing 10^7 CFU of an overnight culture of EcN were inoculated into separate tubes containing NB. Two mg/mL of extracts or isolated phenolic compounds or 2 mg/mL of glucose as a positive control was added, and growth of EcN was assessed as the number of viable colonies forming units (CFU)/mL after incubation for 24 h using the pour method on nutrient agar, followed by incubation at 37 °C for 24 h. PI is the ratio of growth of EcN in NB supplemented with individual compounds or extracts to growth on glucose. A PI greater than one indicates a positive influence on the growth of EcN. PI was calculated as follows:(1) PI=CFUofEcNinPhenolicCompounds(asprebiotic)/CFUofECNinglucose(ascontrolcarbohydrate)
# [3] = target: angiotensin-converting enzyme (ACE) (Homo sapiens, UniProt P12821); experiment: Angiotensin-converting enzyme inhibitory activity (HHL cleavage, 228 nm); format: biochemical; settings: whey of yogurt enriched at 2 mg/mL, after 7 days of refrigerated storage; in words
# Experimental: Lyophilized aqueous extract (whey) obtained from yogurt enriched with extracts or individual compounds at 2 mg/mL was used. […] The method depends on hipuryl-histdylleucine (HHL) cleavage to hippuric acid by ACE. HHL (3.8 mM) was diluted in 0.1 M borate buffer (200 μL; pH 8.3), including 0.3 M NaCl, then 35 μL of sample solution (2 mg/mL) was added, and the mixture incubated for 10 min at 37 °C. The reaction was initiated by adding 20 μL of ACE solution (0.1 U/mL in borate buffer) and allowed to proceed for 30 min at 37 °C. HCl (250 μL of a 1 M solution) was then added to stop the reaction. […] Subsequently, 1 mL of supernatant (ethyl acetate) was collected in a new tube and placed in boiling water for 30 min to eliminate the solvent. The remaining hippuric acid residue was dissolved in 1 mL of distilled water, and absorbance was measured at 228 nm using distilled water as a blank. All samples were analyzed in triplicate. Captopril (0.008 mg/mL) was used as a positive control, and lyophilized aqueous extract (whey) obtained from plain yogurt was used as a negative control. The calculation of ACE inhibitory activity was determined as follows:(3) ACE inhibition%=[1-(A-C)/(B-D)]×100 where A is absorbance with the sample, HHL, and ACE; B is absorbance with HHL and ACE without sample; C is absorbance with sample and HHL; D is absorbance with HHL without sample and ACE.
# [4] = tested on: E. coli Nissle 1917 (EcN) versus Escherichia coli K12; experiment: Prebiotic activity score (EcN growth relative to enteric E. coli K12, vs glucose); format: cell-based; settings: EcN vs E. coli K12, 24 h at 37 °C
# Experimental: as §1
# Log E is log of CFU/mL of K12 at zero time (E0) and 24 h (E24) of culture on glucose and pure compounds. Individual pure compounds or extracts that induce a high value of Pscore improve EcN growth compared with the growth rate of EcN on glucose. Support of K12 growth by pure compounds or extracts theoretically should be low compared to growth of K12 on glucose.
# pepsin = pepsin (Homo sapiens, UniProt P0DJD8); experiment: Protease (pepsin) inhibition with bovine serum albumin substrate; format: biochemical; settings: samples at 2 mg/mL; Pepstatin A 0.5 µg/mL positive control; in words
# Experimental: Protease used the protocol of [Hu et al. (2013]). Briefly, 100 µL of pepsin solution (1 mg pepsin/1 mL of 0.02 N HCl) was mixed with 0.5 mL of 10 mg/mL bovine serum albumin and 0.5 mL of extracts or pure compounds (2 mg/mL) and incubated for 30 min at 37 °C. TCA (0.9 mL 5%) was added to stop the reaction, followed by centrifugation (4800g, 15 min). Protein concentration in the final supernatant was determined using Coomassie (Bradford) protein assay kits. Pepstatin A (0. 5 µg/mL) was used as a positive control.
# α-amylase = α-amylase inhibition (starch, dinitrosalicylic acid, 540 nm); format: biochemical; settings: samples at 2 mg/mL; acarbose 5 µg/mL positive control; in words
# Experimental: α-amylase inhibition was determined as previously reported ([Hu et al., 2013]). Briefly, 200 µL of 20 mM sodium phosphate buffer (pH 7.0 with 6 mM NaCl), including α-amylase (10 U/mL) and 200 µL of sample (2 mg/mL), was incubated at 37 °C for 45 min. A potato starch solution (400 µL; 0.5%) was added to each sample and incubated at 37 °C in a shaking water bath (100 rpm) for 10 min. The enzymatic reaction was stopped with dinitrosalicylic acid color reagent. Screw cape tubes were transferred to a water bath at 100 °C for 10 min, then cooled to room temperature. Finally, samples were diluted with 3 mL of deionized water (3 mL). Absorbance of diluted reaction mixtures was measured spectrophotometrically at 540 nm (Spectro UV–VIS Auto, UV2602, Labomed, USA). Test and control samples were compared and expressed as percentage inhibition of α-amylase. Acarbose (5 µg/mL) was used as a positive control, and samples in buffer without test compounds or extracts were included as negative controls.
# [5] = EcN in nutrient broth supplemented at 2 mg/mL, 37 °C, n = 3
# Chain of angiotensin-converting enzyme (ACE) (P12821 30-1306, species assumed): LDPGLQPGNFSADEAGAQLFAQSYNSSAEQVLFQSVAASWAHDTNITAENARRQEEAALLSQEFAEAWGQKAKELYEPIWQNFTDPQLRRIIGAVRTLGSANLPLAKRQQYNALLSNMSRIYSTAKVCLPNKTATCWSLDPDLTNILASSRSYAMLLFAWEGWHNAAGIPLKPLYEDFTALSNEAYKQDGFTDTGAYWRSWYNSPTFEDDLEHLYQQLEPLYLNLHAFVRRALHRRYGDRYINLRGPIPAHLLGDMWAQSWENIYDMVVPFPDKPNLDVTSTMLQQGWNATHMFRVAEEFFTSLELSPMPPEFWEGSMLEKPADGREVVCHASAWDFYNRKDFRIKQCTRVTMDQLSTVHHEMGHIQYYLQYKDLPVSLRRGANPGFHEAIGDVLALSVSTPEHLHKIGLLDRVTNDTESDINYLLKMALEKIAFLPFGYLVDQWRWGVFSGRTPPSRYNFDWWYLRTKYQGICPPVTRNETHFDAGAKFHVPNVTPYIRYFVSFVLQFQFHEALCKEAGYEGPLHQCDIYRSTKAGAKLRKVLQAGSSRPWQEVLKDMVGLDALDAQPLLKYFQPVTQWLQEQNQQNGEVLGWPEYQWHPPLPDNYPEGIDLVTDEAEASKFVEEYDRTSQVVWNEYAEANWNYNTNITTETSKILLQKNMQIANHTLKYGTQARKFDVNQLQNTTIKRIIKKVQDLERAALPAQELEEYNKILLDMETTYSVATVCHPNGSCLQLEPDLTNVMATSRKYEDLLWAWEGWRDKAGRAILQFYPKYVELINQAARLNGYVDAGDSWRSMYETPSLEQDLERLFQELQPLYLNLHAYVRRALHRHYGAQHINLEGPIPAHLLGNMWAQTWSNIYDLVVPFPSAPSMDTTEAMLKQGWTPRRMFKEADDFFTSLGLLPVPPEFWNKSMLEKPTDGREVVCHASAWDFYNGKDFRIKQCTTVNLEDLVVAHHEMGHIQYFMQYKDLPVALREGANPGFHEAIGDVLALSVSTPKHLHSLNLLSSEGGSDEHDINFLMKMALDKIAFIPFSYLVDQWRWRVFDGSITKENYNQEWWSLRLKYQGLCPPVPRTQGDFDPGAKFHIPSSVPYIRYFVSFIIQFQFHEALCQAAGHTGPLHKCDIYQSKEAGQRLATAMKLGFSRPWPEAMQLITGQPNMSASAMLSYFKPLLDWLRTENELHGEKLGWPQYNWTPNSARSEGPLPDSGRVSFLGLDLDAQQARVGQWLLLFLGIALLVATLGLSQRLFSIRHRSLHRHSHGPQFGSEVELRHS
# Chain of pepsin (P0DJD8 63-388): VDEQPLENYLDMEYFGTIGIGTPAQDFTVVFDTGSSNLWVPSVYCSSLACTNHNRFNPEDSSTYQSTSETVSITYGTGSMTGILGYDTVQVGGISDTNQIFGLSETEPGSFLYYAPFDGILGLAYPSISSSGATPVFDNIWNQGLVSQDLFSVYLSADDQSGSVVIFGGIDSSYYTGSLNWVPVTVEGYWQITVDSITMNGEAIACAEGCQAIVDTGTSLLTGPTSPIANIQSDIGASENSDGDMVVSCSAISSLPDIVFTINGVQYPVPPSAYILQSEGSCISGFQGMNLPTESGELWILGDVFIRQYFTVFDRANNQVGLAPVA
SMILES,"Lag (min) [1, 5]",Prebiotic index (PI) [2],Effect on lag phase of EcN compared with control [1],further results
"CC(=O)c1c(C)cc2cccc(O)c2c1O [Compound 1, Nepodin]",240 ^a min,0.94 ± 0.24,,ACE inhibitory activity [3]: the highest compared with other isolated compounds
"Cc1cc(O)c2c(c1)C(=O)c1cccc(O)c1C2=O [Compound 2, chrysophanol]",180 ^b min,,significantly (P < 0.05) decreased lag phase,
"COc1cc(O)c2c(c1)C(=O)c1cc(C)cc(O)c1C2=O [Compound 3, physcion]",180 ^b min,,significantly (P < 0.05) decreased lag phase,
"CC[C@H](CC[C@@H](C)[C@H]1CC[C@H]2[C@@H]3CC=C4C[C@@H](O)CC[C@]4(C)[C@H]3CC[C@]12C)C(C)C [Compound 4, β-sitosterol]",60 ^c min,3.05 ± 0.47,significantly (P < 0.05) decreased lag phase,"Td (min), doubling time [1, 5]: 39.71 min; Prebiotic activity score (Pscore) [4]: about 3.02 ± 0.48"
"Cc1cc(O)c2c(c1)C(=O)c1cc(O)cc(O)c1C2=O [Compound 5, emodin]",240 ^a min,1.14 ± 0.20,,ACE inhibitory activity [3]: the lowest inhibitory activity of ACE compared with other compounds
"CC[C@@H](CCC(C)C1CCC2C3CC=C4C[C@@H](O[C@@H]5O[C@H](CO)[C@@H](O)[C@H](O)[C@H]5O)CC[C@]4(C)C3CC[C@]12C)C(C)C (stereo partly drawn) [Compound 6, β-sitosterol 3-O-β-D-glucoside]",180 ^b min,,significantly (P < 0.05) decreased lag phase,
"CC(=O)c1c(C)cc2cccc(O[C@@H]3O[C@H](CO)[C@@H](O)[C@H](O)[C@H]3O)c2c1O [Compound 7, 6-methyl-7-acetyl-1,8-dihydroxy naphthalene-1-O-β-D-glucoside]",180 ^b min,,significantly (P < 0.05) decreased lag phase,
"CCO[C@@H]1O[C@H](CO)[C@@H](O)[C@H](O)[C@H]1O [Compound 8, ethyl β-D-glucopyranoside]",180 ^b min,,significantly (P < 0.05) decreased lag phase,
"CC(C)CC(=O)N[C@H](C(=O)N[C@H](C(=O)N[C@@H](CC(C)C)[C@@H](O)CC(=O)N[C@@H](C)C(=O)N[C@@H](CC(C)C)[C@@H](O)CC(=O)O)C(C)C)C(C)C [Pepstatin, Pepstatin A] (Isovaleryl-VV[Sta]A[Sta]-OH)",,,,Inhibition of pepsin (protease) activity (pepsin): inhibitory activity greater than for any extracts or isolated compounds
"C[C@H]1O[C@H](O[C@H]2[C@H](O)[C@@H](O)[C@@H](O[C@H]3[C@H](O)[C@@H](O)C(O)O[C@@H]3CO)O[C@@H]2CO)[C@H](O)[C@@H](O)[C@@H]1N[C@H]1C=C(CO)[C@@H](O)[C@H](O)[C@H]1O (some centres unmarked) [acarbose, Acarbose]",,,,Inhibition of α-amylase activity (α-amylase): inhibition was greater than for either extracts
